Laboratory results as given in US20080161344A1, “Melanin Concentrating Hormone Receptor Ligands: Substituted Tetrahydroisoquinoline Analogues” (priority 2004, published 2008).

Each molecule was assayed against MCH receptor (MCH1) (Macaca fascicularis, UniProt A0A2K5VT41) (assay: Melanin concentrating hormone receptor binding assay (125I-Tyr MCH competition, membranes of transfected HEK293 cells)). Details: not given.
Set-up: species or system Cynomolgus macaque
Procedure: This Example illustrates a standard assay of melanin concentrating hormone receptor binding that may be used to determine the binding affinity of compounds for the MCH receptor.
Cynomolgus macaque hypothalamus MCH1 cDNA is prepared and cloned into PCDNA3.1 (INVITROGEN Corp., Carlsbad, Calif.), and HEK293 cells (American Type Culture Collection, Manassas, Va.) are stably transfected with the MCH1 expression vector as described in PCT International Application publication number WO/03/059289, which published on Jul. 24, 2003. The disclosure of WO 03/059289 at page 52 directed to the preparation and storage of the transfected HEK293 cells is hereby incorporated by reference.
At the time of assay, pellets are thawed by addition of wash buffer (25 mM Hepes with 1.0 mM CaCl2, 5.0 mM MgCl2, 120 mM NaCl, pH 7.4) and homogenized for 30 seconds using a BRINKMAN POLYTRON, setting 5. Cells are centrifuged for 10 minutes at 48,000×g. The supernatant is discarded and the pellet is resuspended in fresh wash buffer, and homogenized again. An aliquot of this membrane homogenate is used to determine protein concentration via the Bradford method (BIO-RAD Protein Assay Kit, #500-0001, BIO-RAD, Hercules, Calif.). By this measure, a 1-liter culture of cells typically yields 50-75 mg of total membrane protein. The homogenate is centrifuged as before and resuspended to a protein concentration of 333 μg/mL in binding buffer (Wash buffer+0.1% BSA and 1.0 μM final phosphoramidon) for an assay volume of 50 μg membrane protein/150 μl binding buffer. Phosphoramidon was from SIGMA BIOCHEMICALS, St. Louis, Mo. (cat# R-7385).
Competition binding assays are performed at room temperature in Falcon 96 well round bottom polypropylene plates. Each assay well contains 150 μL of MCH receptor-containing membranes described above, 50 μL ^125I-Tyr MCH, 50 μL binding buffer, and 2 μL test compound in DMSO. ^125I-Tyr MCH (specific activity=2200 Ci/mmol) is purchased from NEN (Boston, Mass.) and is diluted in binding buffer to provide a final assay concentration of 30 pM.
Non-specific binding is defined as the binding measured in the presence of 1 μM unlabeled MCH. MCH is purchased from BACHEM U.S.A., King of Prussia, Pa. (cat #H-1482). Assay wells used to determine MCH binding contain 150 μL of MCH receptor containing membranes, 50 μL ^125I-Tyr MCH, 25 μL binding buffer and 25 μL binding buffer.
Assay plates are incubated for 1 hour at room temperature. Membranes are harvested onto WALLAC™ glass fiber filters (PERKIN-ELMER, Gaithersburg, Md.) which were pre-soaked with 1.0% PEI (polyethyleneimine) for 2 hours prior to use. Filters are allowed to dry overnight, and then counted in a WALLAC 1205 BETA PLATE counter after addition of WALLAC BETA SCINT™ scintillation fluid.
For saturation binding, the concentration of ^125I-Tyr MCH is varied from 7 to 1,000 pM. Typically, 11 concentration points are collected per saturation binding curve. Equilibrium binding parameters are determined by fitting the allosteric Hill equation to the measured values with the aid of the computer program FitP™ (BIOSOFT, Ferguson, Mo.).

Chain of MCH receptor (MCH1) (A0A2K5VT41 entry or part of it): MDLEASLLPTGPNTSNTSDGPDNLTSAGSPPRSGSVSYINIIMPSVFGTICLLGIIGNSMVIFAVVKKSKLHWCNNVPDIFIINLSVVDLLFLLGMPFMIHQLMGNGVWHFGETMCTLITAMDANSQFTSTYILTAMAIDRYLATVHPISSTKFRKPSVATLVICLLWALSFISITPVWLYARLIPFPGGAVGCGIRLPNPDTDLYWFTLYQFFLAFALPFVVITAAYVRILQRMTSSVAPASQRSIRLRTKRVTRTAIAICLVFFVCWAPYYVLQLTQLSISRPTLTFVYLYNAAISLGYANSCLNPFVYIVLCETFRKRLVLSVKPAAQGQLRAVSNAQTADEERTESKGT

Row | Compound | Ki [nM]
1 | COc1cc2c(cc1OC)CN(Cc1cccc(Oc3ccc(C(C)(C)C)cc3)c1)CC2 [Compound 1, 2-[3-(4-tert-Butyl-phenoxy)-benzyl]-6,7-dimethoxy-1,2,3,4-tetrahydroisoquinoline] | < 1000
2 | COc1cc2c(cc1OC)CN(Cc1cccc(Oc3ccc(C)cc3)c1)CC2 [Compound 3, 6,7-dimethoxy-2-(3-p-tolyloxy-benzyl)-1,2,3,4-tetrahydroisoquinoline] | < 1000
3 | COc1cc2c(cc1OC)CN(Cc1ccnc(Oc3ccc(C(C)(C)C)cc3)c1)CC2 [Compound 5, 2-[2-(4-tert-Butyl-phenoxy)-pyridin-4-ylmethyl]-6,7-dimethoxy-1,2,3,4-tetrahydroisoquinoline] | < 1000

Same assay, conditions: MCH receptor binding assay of Example 2; class symbol; read-out: Ki

Row | Ki [nM] | Compound
4 | < 1000 | COc1cc2c(cc1OC)CN(Cc1cccc(Cc3ccccc3)c1)CC2 [Compound 10, 2-(3-Benzyl-benzyl)-6,7-dimethoxy-1,2,3,4-tetrahydroisoquinoline]
5 | < 1000 | COc1cc2c(cc1OC)CN(Cc1ccnc(Oc3ccc(C(C)C)cc3)c1)CC2 [Compound 19, 2-[2-(4-Isopropyl-phenoxy)-pyridin-4-ylmethyl]-6,7-dimethoxy-1,2,3,4-tetrahydroisoquinoline]
6 | < 1000 | COc1cc2c(cc1OC)CN(Cc1cccc(Oc3ccc(Cl)cc3)c1)CC2 [Compound 21, 2-[3-(4-Chloro-phenoxy)-benzyl]-6,7-dimethoxy-1,2,3,4-tetrahydroisoquinoline]
7 | < 1000 | CCOc1ccc(Oc2cccc(CN3CCc4cc(OC)c(OC)cc4C3)c2)cc1 [Compound 22, 2-[3-(4-Ethoxy-phenoxy)-benzyl]-6,7-dimethoxy-1,2,3,4-tetrahydroisoquinoline]
8 | < 1000 | COc1cc2c(cc1OC)CN(Cc1cccc(Oc3ccc(C(C)C)cc3)c1)CC2 [Compound 23, 2-[3-(4-Isopropyl-phenoxy)-benzyl]-6,7-dimethoxy-1,2,3,4-tetrahydroisoquinoline]
9 | < 1000 | CCOc1cc2c(cc1OCC)CN(Cc1cccc(Oc3ccc(C(C)(C)C)cc3)c1)CC2 [Compound 26, 2-[3-(4-tert-Butyl-phenoxy)-benzyl]-6,7-diethoxy-1,2,3,4-tetrahydroisoquinoline]
10 | < 1000 | CCOc1cc2c(cc1OC)CN(Cc1cccc(Oc3ccc(C(C)(C)C)cc3)c1)CC2 [Compound 29, 2-[3-(4-tert-Butyl-phenoxy)-benzyl]-6-ethoxy-7-methoxy-1,2,3,4-tetrahydroisoquinoline]
11 | < 1000 | CCOc1cc2c(cc1OC)CCN(Cc1cccc(Oc3ccc(C(C)(C)C)cc3)c1)C2 [Compound 31, 2-[3-(4-tert-Butyl-phenoxy)-benzyl]-7-ethoxy-6-methoxy-1,2,3,4-tetrahydroisoquinoline]
12 | < 1000 | COc1cc2c(cc1OC)CN(Cc1cccc(Oc3ccc(C(C)(C)C)cc3)n1)CC2 [Compound 34, 2-[6-(4-tert-Butyl-phenoxy)-pyridin-2-ylmethyl]-6,7-dimethoxy-1,2,3,4-tetrahydroisoquinoline]
13 | < 1000 | COc1cc2c(cc1OC)CN(Cc1cccc(Oc3ccc(C#N)cc3)c1)CC2 [Compound 42, 4-[3-(6,7-Dimethoxy-3,4-dihydro-1H-isoquinolin-2-ylmethyl)-phenoxy]-benzonitrile]
14 | < 1000 | COc1cc2c(cc1OC)CN(Cc1cccc(Oc3ccccc3)c1)CC2 [Compound 43, 6,7-Dimethoxy-2-(3-phenoxy-benzyl)-1,2,3,4-tetrahydroisoquinoline]
15 | < 1000 | COc1ccc(Oc2cccc(CN3CCc4cc(OC)c(OC)cc4C3)c2)cc1 [Compound 47, 6,7-Dimethoxy-2-[3-(4-methoxy-phenoxy)-benzyl]-1,2,3,4-tetrahydroisoquinoline]
16 | < 1000 | COc1cc2c(cc1OC)CN(Cc1cccc(Oc3ccc(OC(F)(F)F)cc3)c1)CC2 [Compound 49, 6,7-Dimethoxy-2-[3-(4-trifluoromethoxy-phenoxy)-benzyl]-1,2,3,4-tetrahydroisoquinoline]
17 | < 1000 | COc1cc2c(cc1OC)CN(Cc1cccc(Oc3ccc(C(F)(F)F)cc3)c1)CC2 [Compound 50, 6,7-Dimethoxy-2-[3-(4-trifluoromethyl-phenoxy)-benzyl]-1,2,3,4-tetrahydroisoquinoline]
18 | < 1000 | CC(C)(C)c1ccc(Oc2cccc(CN3CCc4cc5c(cc4C3)OCO5)c2)cc1 [Compound 52, 6-[3-(4-tert-Butyl-phenoxy)-benzyl]-5,6,7,8-tetrahydro-[1,3]dioxolo[4,5-g]isoquinoline]
19 | < 1000 | CCOc1cc2c(cc1OC)CCN(Cc1ccnc(Oc3ccc(C(C)C)cc3)c1)C2 [Compound 53, 7-Ethoxy-2-[2-(4-isopropyl-phenoxy)-pyridin-4-ylmethyl]-6-methoxy-1,2,3,4-tetrahydroisoquinoline]
